{"source": "patent US20140134690A1", "about": "“MICROBES AND METHODS FOR PRODUCING 1-PROPANOL” (University of Georgia Research Foundation, Inc., priority 2012, published 2014)", "assay_in_all_cases": "Methylglyoxal synthase assay", "key": {"[1]": {"target": "T1, Ralstonia eutropha H16 methylglyoxal synthase (mgsA), wild type (Cupriavidus necator, UniProt Q0KD43)", "T1 sequence (Q0KD43 1-132)": "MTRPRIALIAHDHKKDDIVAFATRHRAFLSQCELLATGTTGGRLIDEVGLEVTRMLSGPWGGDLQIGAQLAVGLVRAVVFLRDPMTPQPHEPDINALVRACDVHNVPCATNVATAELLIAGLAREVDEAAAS", "format": "biochemical, R. eutropha", "settings": "substrate dihydroxyacetone phosphate 0.15-1.5 mM; crude extract; pH 7.0; 30° C.", "from_the_text": "(§1) 1,2-Propanediol pathway branches from glycolysis and competes for the intermediate dihydroxyacetone phosphate, with the glycolytic pathway. […] We amplified the mgsA genes from the microorganisms: C. acetobutylicum (ATCC#824), B. subtilis 168, C. difficile R20291, E. coli MG1655, T. thermophilus HB27, K. pneumoniae MGH78578, P. fluorescens Pf-5, and R. eutropha H16 respectively. These genes were cloned and expressed in wild type E. coli BW25113 using eight plasmids pRJ1-pRJ8. Each gene was under the control of the IPTG-inducible pLlacO1 promoter. Using dihydroxyacetone-phosphate as the substrate, we successfully detected the functional expression of all mgsA genes in vitro, where the specific activities varied from 0.0052 U/mg to 0.1242 U/mg (Table 1). […] Without the over-expression of mgsA gene, we also detected the native expression of E. coli mgsA, which gave a specific activity of only 0.0008 U/mg, much lower than that of any over-expression.\n(§2) Using the primers listed in Table 5, the mgsA genes were PCR amplified from the genomic DNA of C. acetobutylicum (ATCC824), B. subtilis 168, Clostridium difficile R20291, E. coli MG1655, Thermus thermophilus HB27, K. pneumoniae MGH78578, Pseudomonas fluorescens Pf-5, and Ralstonia eutropha H16 respectively. […]\n(§3) The assay was carried out using a two-step procedure. […] The samples were diluted 10 times before measuring the absorbance at 550 nm."}, "[2]": {"target": "T2, Pseudomonas fluorescens Pf-5 methylglyoxal synthase (mgsA), wild type (Pseudomonas protegens, UniProt Q4K7S5)", "T2 sequence (Q4K7S5 1-154)": "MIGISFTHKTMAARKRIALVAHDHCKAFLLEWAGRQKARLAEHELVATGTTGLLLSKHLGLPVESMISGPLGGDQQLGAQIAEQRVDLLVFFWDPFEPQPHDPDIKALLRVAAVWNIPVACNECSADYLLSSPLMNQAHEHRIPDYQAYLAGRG", "format": "biochemical, P. fluorescens", "settings": "substrate dihydroxyacetone phosphate 0.15-1.5 mM; crude extract; pH 7.0; 30° C.", "from_the_text": "as §1, §2, §3"}, "[3]": {"target": "E. coli MG1655 methylglyoxal synthase (mgsA), wild type (Escherichia coli, UniProt P0A731)", "sequence (P0A731 whole entry)": "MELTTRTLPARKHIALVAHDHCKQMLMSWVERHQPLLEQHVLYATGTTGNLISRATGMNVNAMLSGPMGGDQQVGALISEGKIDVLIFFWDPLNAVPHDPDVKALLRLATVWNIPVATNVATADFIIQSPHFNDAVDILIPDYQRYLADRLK", "format": "biochemical", "settings": "substrate dihydroxyacetone phosphate 0.15-1.5 mM; crude extract; pH 7.0; 30° C.", "from_the_text": "as §1, §2, §3"}, "[4]": {"target": "Clostridium difficile R20291 methylglyoxal synthase (mgsA), wild type (Clostridioides difficile, UniProt A0A9R0BJ64)", "sequence (A0A9R0BJ64 entry or part of it)": "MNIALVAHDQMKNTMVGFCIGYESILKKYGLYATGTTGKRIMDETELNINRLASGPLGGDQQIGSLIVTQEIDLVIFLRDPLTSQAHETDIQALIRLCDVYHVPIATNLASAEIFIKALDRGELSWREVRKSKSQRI", "format": "biochemical, C. difficile", "settings": "substrate dihydroxyacetone phosphate 0.15-1.5 mM; crude extract; pH 7.0; 30° C.", "from_the_text": "as §1, §2, §3"}, "[5]": {"target": "Klebsiella pneumoniae MGH78578 methylglyoxal synthase (mgsA), wild type (Klebsiella pneumoniae, UniProt A6T757)", "sequence (A6T757 6-157)": "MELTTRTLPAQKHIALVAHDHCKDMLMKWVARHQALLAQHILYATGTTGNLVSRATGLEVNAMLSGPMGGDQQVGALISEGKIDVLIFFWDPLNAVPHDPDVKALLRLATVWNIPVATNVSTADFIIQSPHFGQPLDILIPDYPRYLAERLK", "format": "biochemical, K. pneumoniae", "settings": "substrate dihydroxyacetone phosphate 0.15-1.5 mM; crude extract; pH 7.0; 30° C.", "from_the_text": "as §1, §2, §3"}, "[6]": {"target": "T3, Thermus thermophilus HB27 methylglyoxal synthase (mgsA), wild type (Thermus thermophilus, UniProt Q72HP3)", "T3 sequence (Q72HP3 1-126)": "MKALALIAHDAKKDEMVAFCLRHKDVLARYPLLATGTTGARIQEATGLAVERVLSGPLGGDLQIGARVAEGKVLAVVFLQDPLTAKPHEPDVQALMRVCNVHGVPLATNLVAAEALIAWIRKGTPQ", "format": "biochemical, T. thermophilus", "settings": "substrate dihydroxyacetone phosphate 0.15-1.5 mM; crude extract; pH 7.0; 30° C.", "from_the_text": "as §1, §2, §3"}, "[7]": {"target": "T4, Bacillus subtilis 168 methylglyoxal synthase (mgsA), wild type (Bacillus subtilis, UniProt P42980)", "T4 sequence (P42980 1-137)": "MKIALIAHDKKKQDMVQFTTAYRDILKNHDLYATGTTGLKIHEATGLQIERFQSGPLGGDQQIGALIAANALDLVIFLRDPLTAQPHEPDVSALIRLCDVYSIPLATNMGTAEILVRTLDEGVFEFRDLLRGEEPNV", "format": "biochemical, B. subtilis", "from_the_text": "as §1, §2, §3"}, "[8]": {"target": "T5, Clostridium acetobutylicum (ATCC 824) methylglyoxal synthase (mgsA), wild type (Clostridium acetobutylicum, UniProt Q97IN6)", "T5 sequence (Q97IN6 1-145)": "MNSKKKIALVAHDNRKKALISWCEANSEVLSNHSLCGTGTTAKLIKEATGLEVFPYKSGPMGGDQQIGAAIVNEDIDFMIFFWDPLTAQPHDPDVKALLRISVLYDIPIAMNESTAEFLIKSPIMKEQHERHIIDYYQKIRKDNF", "format": "biochemical, C. acetobutylicum", "settings": "substrate dihydroxyacetone phosphate 0.15-1.5 mM; crude extract; pH 7.0; 30° C.", "from_the_text": "as §1, §2, §3"}}, "data": [{"smiles": "O=C(CO)COP(=O)(O)O", "note": "[dihydroxyacetone phosphate]", "values": [{"measurement": "Specific Activity/Km", "setting": "[1]", "result": 0.0074, "unit": "U/mg/mM"}, {"measurement": "Specific Activity/Km", "setting": "[2]", "result": 0.0085, "unit": "U/mg/mM"}, {"measurement": "Specific Activity/Km", "setting": "[3]", "result": 0.0876, "unit": "U/mg/mM"}, {"measurement": "Specific Activity/Km", "setting": "[4]", "result": 0.0415, "unit": "U/mg/mM"}, {"measurement": "Specific Activity/Km", "setting": "[5]", "result": 0.0058, "unit": "U/mg/mM"}, {"measurement": "Specific Activity/Km", "setting": "[6]", "result": 0.0076, "unit": "U/mg/mM"}, {"measurement": "Specific Activity/Km", "setting": "[7]; substrate dihydroxyacetone phosphate 0.15-1.5 mM, crude extract, pH 7.0, 30° C.", "result": 0.1186, "unit": "U/mg/mM"}, {"measurement": "ratio of specific activity/Km", "setting": "[7]; substrate dihydroxyacetone-phosphate", "result": 0.1186}, {"measurement": "Specific Activity/Km", "setting": "[8]", "result": 0.0697, "unit": "U/mg/mM"}]}]}
